Laboratory results as given in patent US9249448B2 (priority 2010, dated 2016).

Target: protein of SEQ ID NO 1 (yxel gene product) (Bacillus subtilis, UniProt P54948, G69A/I70F/P219S/T91M)
Conditions: sodium acetate 100 mM final concentration; substrate 0.2 mg/ml, 37°, 15 min, PBS buffer; compared with background activity of plasmid-free E. coli strain
Excerpt: Cells obtained as in example 2 were harvested by centrifugation and washed twice with PBS buffer to remove residual medium components. The final cell pellet was resuspended in PBS buffer (per liter water: 8 g NaCl, 0.2 g KCl, 1.44 g Na2HPO4, 0.24 g K H2PO4, pH 7.4) to reach a final OD600 of 30. This cell suspension of strains (either without plasmid or carrying the expression vectors described in Example 1) was used for the activity tests. The washed cell suspensions were contacted in PBS buffer with N-alpha-lauryl-glutamin (0.2 mg/ml final concentration, “LG” in FIG. 35), at 37° (final volume 0.25 ml) for 15 min. The actual test was performed as described in example 7 of WO 02/092024 A2, with GC as the test method.

Sequence of protein of SEQ ID NO 1 (yxel gene product) (P54948 whole entry G69A/I70F/T91M/P219S): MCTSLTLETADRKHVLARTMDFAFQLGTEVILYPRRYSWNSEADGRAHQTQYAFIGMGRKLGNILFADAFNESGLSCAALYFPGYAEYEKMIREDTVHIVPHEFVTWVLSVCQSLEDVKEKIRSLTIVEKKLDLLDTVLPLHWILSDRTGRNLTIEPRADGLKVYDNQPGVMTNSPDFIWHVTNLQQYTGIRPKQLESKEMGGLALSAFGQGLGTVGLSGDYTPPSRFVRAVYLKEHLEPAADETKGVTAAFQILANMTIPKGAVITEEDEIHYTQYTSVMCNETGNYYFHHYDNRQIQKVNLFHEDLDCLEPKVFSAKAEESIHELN

`CC(=O)[O-].[Na+]` [sodium acetate] was tested, and the “enzyme activity (inhibition of N-alpha-lauryl-glutamin cleavage)” value was “inhibited to the level of the background activity”.
